“And” between values parts separate entries of the source, which are not always exact repeats. Equal entries are not always repeated.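 All cell lines were grown in 96-well plates and treated with compound for 48 hours. GI50: concentration for 50% inhibition of growth. TGI: concentration producing complete growth inhibition.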
tested on: NCI-H460 lung; assay: inhibition of tumour cell growth, NCI panel, 48 h

SMILES	TGI	GI50 [µM]
COC(=O)c1ccccc1NC(=O)C(=O)Cc1nc2c3c(ccc2[nH]c1=O)C(=O)c1ccccc1C3=O	> 100 µM	
Cc1ccc(S(=O)(=O)OC[C@@H]2CO2)cc1	> 100 µM	
COc1cc2cc(OC)c3cc4c(cc3c2c(OC)c1OC)OCO4	52 µM	
O=C(CC(=O)c1cccc2ccccc12)C(=O)Nc1ccc(Cl)cc1	> 100 µM	
C=CCO[C@H]1CO[C@H]2[C@@H]1OC[C@@H]2Oc1ccc(Nc2ccnc(Nc3ccc(O[C@H]4CO[C@H]5[C@@H]4OC[C@@H]5OCC=C)c(Cl)c3)n2)cc1Cl	3.35 µM	1.76
CCCCCCCCCCCCCC(=O)OC(/C=C/C(C)C)C(O)C(O)C(OC)C(=O)NC1CCCCN(C)C1=O (centres undefined)	5.79 µM and > 49 µM	
CC1(C(=O)O)CCC[C@@]2(C)C1CC[C@@]1(C)c3cocc3CCC21 (some centres undefined)	> 100 µM	
CCn1c(C)nn2c(=O)c3ccccc3nc2c1=O	> 100 µM	
CCOC(=O)CCC1(C(=O)OCC)CCCCC1=O (centres undefined)	> 100 µM	
CCN(CC)CCSc1c2ccccc2nc2cc(NCC(=O)Nc3ccccc3-c3ccccc3NC(=O)CNc3ccc4c(SCCN(CC)CC)c5ccccc5nc4c3)ccc12	> 100 µM	
Cc1nc2c(ccc3ncccc32)[nH]1	> 100 µM	
O=C(CCNC12CC3CC(CC(C3)C1)C2)c1ccccc1	69.6 µM	
CCN1CCN(Cc2ccc(NC(=O)c3cccc(C#Cc4cccc5[nH]nc(N)c45)c3)cc2C(F)(F)F)CC1	1.66 µM	0.39
CC(=O)[CH-]C(=O)c1ccccc1.CC(=O)[CH-]C(=O)c1ccccc1.CN(C)c1ccc([O-])cc1.CN(C)c1ccc([O-])cc1.Cl.[Ti+4]	> 31.6 µM	15.1
CC1(C)C(=O)/C=C\C(=O)C(C)(C)C2=CC=C(O2)C(C)(C)C(=O)/C=C\C(=O)C(C)(C)C2=CC=C1O2	> 100 µM	
NC(=O)NO.O.O.O.O.O.O.O.O.O.O.O.[Ge].[Ge].[Ge].[Ge].[Ge].[O]=[Ge].[O]=[Ge].[O]=[Ge].[O]=[Ge].[O]=[Ge][OH]	> 100 µM	

SMILES	TGI	GI50 [µM]
CN(C)C(=S)N=C(Nc1ccccc1)Nc1ccccc1	> 100 µM	
COC(=O)CC[N+]1=CCC(c2ccccc2)(c2ccccc2)O1	> 100 µM	
CCC[CH2][Sn]([CH2]CCC)([S]c1cccc2cccnc12)[S]c1cccc2cccnc12	0.356 µM	0.151
OCC1=CC(NC2CC(CO)C(O)C(O)C2O)C(O)C(O)C1O (centres undefined)	> 100 µM	
OCCN(CCO)c1ncnc2c1ncn2Cc1ccc(CCl)cc1	30.8 µM	14.2
Nc1ccccc1S(=O)(=O)N(CC(=O)O)c1ccccc1	> 100 µM	
CCOC(=O)C(C)(C)Oc1ccc2c(-c3ccccc3)cc(=O)oc2c1	> 100 µM	
CNS(=O)(=O)NNS(=O)(=O)c1ccccc1	> 100 µM	
Cc1cc(NS(=O)(=O)c2ccc(Nc3c4ccccc4nc4c(C(=O)N5CCN(CCOS(C)(=O)=O)CC5)cccc34)cc2)no1	> 100 µM	
O=C(O)CCC(NC(=O)c1ccc(Nc2nc3ccccc3nc2-c2cccs2)cc1)C(=O)O (centres undefined)	> 100 µM	
NC1=NCCC1(c1ccccc1)c1ccccn1 (centres undefined)	> 100 µM	
CNC(=S)OCCC(C)CCCC(C)C (centres undefined)	35.2 µM	
COC1/C=C/OC2(C)Oc3c(C)c(O)c4c(O)c(c(/C=N/Nc5ccc([N+](=O)[O-])cc5[N+](=O)[O-])c(O)c4c3C2=O)NC(=O)C(C)=C/C=C/C(C)C(O)C(C)C(O)C(C)C(OC(C)=O)C1C (centres undefined)	14.7 µM	5.22
COC(=O)/C(C#N)=C1\NC(=O)c2ccccc21	> 100 µM	
Fc1ccc(NC(=S)SCc2ccc3c(c2)OCO3)cc1F	> 100 µM	

tested on: DU-145 prostate; assay: inhibition of tumour cell growth, NCI panel, 48 h

SMILES	TGI [µM]	GI50 [µM]
COc1cc2c(c3oc4c(O)cccc4c(=O)c13)CC(C(C)(O)CO)O2 (centres undefined)	> 100	
Cc1ccc(Cl)c2c(N=Nc3ccccc3[N+](=O)[O-])c(O)[nH]c12	> 100	
C=CCOc1ccc2c(C)cc(=O)oc2c1C	> 100	
C=CCO[C@H]1CO[C@H]2[C@@H]1OC[C@@H]2Oc1ccc(Nc2ccnc(Nc3ccc(O[C@H]4CO[C@H]5[C@@H]4OC[C@@H]5OCC=C)c(Cl)c3)n2)cc1Cl	3.13	1.69
O=C(CCNC12CC3CC(CC(C3)C1)C2)c1ccccc1	> 100	
CCN1CCN(Cc2ccc(NC(=O)c3cccc(C#Cc4cccc5[nH]nc(N)c45)c3)cc2C(F)(F)F)CC1	1.68	0.419
CC(C)=CCC\C(C)=C/C=C/C(C)=C\C=C\C(C)=C/C=C/C=C(C)\C=C\C=C(C)/C=C/C=C(/C)CCC=C(C)C	> 100	
COC(=O)CC[N+]1=CCC(c2ccccc2)(c2ccccc2)O1	> 100	
OCCN(CCO)c1ncnc2c1ncn2Cc1ccc(CCl)cc1	16.1	4.42

Reference: PubChem BioAssay (NCI)
